We go through 2 compounds from patent US10039761B2, “Co-crystals and pharmaceutical compositions comprising the same” (Vertex Pharmaceuticals Incorporated, priority 2013, dated 2018).

SMILES strings stand for the structures. Entries after “also recorded” stand apart in the source; their conditions may differ. Bounds are passed on as bounds.

The test system of one assay is A549. Briefly: Combination with genotoxic agents, cell viability (Mixtures Blend). Also on record: key to Synergy or Antagonism, Plus Radiation (2 Gy): Plus = enhanced effect of radiation; *: Viability reduction driven predominantly by Compound (1) plus radiation. The assay is classed as cell-based. Here is the method: (§1) The cell-based experiments and assays were performed with either molecule but not always with both. Compounds (1) and (2) were generally very similar in those assays and experiments. Analysis of the combination experiments was performed using two methods: the Bliss Additivity model and the Mixtures Blend method to determine the degree of synergy, additivity, or antagonism. In the Bliss method, a matrix of Bliss scores was generated for each cell line and treatment, and a sum of the Bliss values over the range of combination concentrations tested was calculated. […] Larger average Bliss values indicate greater confidence in reporting synergy, and smaller scores indicate greater confidence in reporting antagonism. In the Mixtures Blend method combinants were added in a range of optimal ratios using design of experiment (DOE) software (DX-8 from STAT-EASE); the cells were irradiated with 2 Gy as required. Synergy was determined using statistical analysis of the data (ANOVA) to indicate linear (additivity) or statistically significant (p<0.1) non-linear (antagonism or synergy) mixes of the combinants. The following SOC agents were tested in double combinations with Compound (1): etoposide (a topoisomerase inhibitor that induces DSBs), cisplatin (DNA cross-linker), carboplatin (DNA cross-linker), fluorouracil (5-FU, antimetabolite that inhibits thymidylate synthase), paclitaxel (mitotic inhibitor that binds to tubulin), cetuximab (EGFR monoclonal antibody), and radiation. […] These findings were confirmed using the Bliss Additivity model (Table 21). […] While there is not total agreement in the various lines tested, (as detailed in the other sections) the majority agree and the conclusions arrived at are common to each. […] The cancer cell lines in Table 19 indicate: ESO26-gastroesophageal junction cancer, OE19-gastroesophageal junction cancer, […]549-lung cancer, colo205-colon cancer, H460-lung cancer, H2009-lung cancer, FaDu-pharynx cancer, Miapaca2-pancreatic cancer, HFL1-human fetal lung fibroblast.

The next assay has as its system FaDu. The description is as above. Type of assay: cell-based. Details: key to Synergy or Antagonism, Plus Radiation (2 Gy): Plus = enhanced effect of radiation; *: Viability reduction driven predominantly by Compound (1) plus radiation. Here is the method:
as §1

The subject of another assay is H2009. The description is as above. Type of assay: cell-based. Details: key to Synergy or Antagonism, Plus Radiation (2 Gy): Plus = enhanced effect of radiation; *: Viability reduction driven predominantly by Compound (1) plus radiation. The note with it: no agent ticked. As for the experimental part: as §1
For the next assay, the system named is H460. The description is as above. The following applies: no agent ticked. Also on record: key to Synergy or Antagonism, Plus Radiation (2 Gy): Plus = enhanced effect of radiation; *: Viability reduction driven predominantly by Compound (1) plus radiation. The assay is classed as cell-based. Here is the method:
as §1

For the next assay, the system named is Colo205. The assay is described as above. Type of assay: cell-based. The note with it: with Cisplatin and 5-FU. Here is the method:
as §1

The next assay concerns DMS-53. The assay is described as above. The following applies: with Cisplatin and Etoposide. The assay is classed as cell-based. Here is the method: as §1
In another assay the test system is OE19. Described as above. Type of assay: cell-based. Here is the method: as §1
For another assay, the system named is HFL1. The assay is described as above. Type of assay: cell-based, human. As for the experimental part: as §1
A further assay concerns FaDu cells. Briefly: Clonogenic survival of irradiated cancer cell lines. Type of assay: cell-based. An excerpt: (§2) The clonogenic cell survival assay measures the ability of a cell to proliferate indefinitely, thereby retaining its self-renewing ability to form a colony (i.e., clone). This assay has been a mainstay in radiation oncology for decades and was used to determine the effect of Compound (1) on the clonogenicity of a panel of cell lines across multiple tumor types following radiation. […] A DEF greater than 1.5 is generally considered to be clinically meaningful; therefore, by these standards, Compound (1) would be characterized as a strong radio-enhancing agent.

Another assay has as its system Miapaca2 cells. The assay is described as above. Type of assay: cell-based. The following applies: with radiation; surviving fraction 0.1.
Description: as §2

Assay [1] concerns triple-negative breast cancer cell lines. Briefly: Doxorubicin/epirubicin combination, all breast cancer lines tested. The assay is classed as cell-based. The note with it: doxorubicin and Compound (2). As for the experimental part: The cell-based experiments and assays were performed with either molecule but not always with both. Compounds (1) and (2) were generally very similar in those assays and experiments. Analysis of the combination experiments was performed using two methods: the Bliss Additivity model and the Mixtures Blend method to determine the degree of synergy, additivity, or antagonism. In the Bliss method, a matrix of Bliss scores was generated for each cell line and treatment, and a sum of the Bliss values over the range of combination concentrations tested was calculated. […] Larger average Bliss values indicate greater confidence in reporting synergy, and smaller scores indicate greater confidence in reporting antagonism. In the Mixtures Blend method combinants were added in a range of optimal ratios using design of experiment (DOE) software (DX-8 from STAT-EASE); the cells were irradiated with 2 Gy as required. Synergy was determined using statistical analysis of the data (ANOVA) to indicate linear (additivity) or statistically significant (p<0.1) non-linear (antagonism or synergy) mixes of the combinants.

The subject of assay [2] is DU4475 breast cancer line. Description: Doxorubicin or epirubicin combination in DU4475 cells. The note with it: Doxorubicin or epirubicin in combination with Compound (2). Type of assay: cell-based.
Description: The cell-based experiments and assays were performed with either molecule but not always with both. […] Analysis of the combination experiments was performed using two methods: the Bliss Additivity model and the Mixtures Blend method to determine the degree of synergy, additivity, or antagonism. In the Bliss method, a matrix of Bliss scores was generated for each cell line and treatment, and a sum of the Bliss values over the range of combination concentrations tested was calculated. […] Larger average Bliss values indicate greater confidence in reporting synergy, and smaller scores indicate greater confidence in reporting antagonism. In the Mixtures Blend method combinants were added in a range of optimal ratios using design of experiment (DOE) software (DX-8 from STAT-EASE); the cells were irradiated with 2 Gy as required. Synergy was determined using statistical analysis of the data (ANOVA) to indicate linear (additivity) or statistically significant (p<0.1) non-linear (antagonism or synergy) mixes of the combinants.

Regarding `CNC(=O)c1ccnc2c([C@H](C)CNc3cc(-c4cnc(C)nc4)ncn3)cccc12` [Compound (1), (S)-N-methyl-8-(1-((2′-methyl-[4,5′-bipyrimidin]-6-yl)amino)propan-2-yl)quinoline-4-carboxamide], the “Synergy or Antagonism, No Radiation” value in the assay with A549 (no agent ticked) was “Synergy”; with A549 (with Cetuximab), “Additivity”; in the assay with A549 (with Cisplatin), “Additivity”; in the assay with A549 (with Cisplatin and Etoposide), “Strong Synergy”; in the assay with A549 (with Cisplatin and Paclitaxel), “additive; also recorded: Additivity”; in the assay on A549 (with Etoposide), “Strong Synergy”. Also, the “Synergy or Antagonism, No Radiation” value was “Antagonism” in the assay with A549 (with Paclitaxel); “Synergy” in the assay with FaDu (no agent ticked); “Additivity” in the assay on FaDu (with Cetuximab); “Additivity” in the assay with H2009; “Synergy” in the assay on H460; “synergistic; also recorded: Synergy” in the assay with Colo205. Further, the “Synergy or Antagonism, No Radiation” value with DMS-53 is given as “Strong Synergy”; with OE19 (with 5-FU) it was “Additivity”; with OE19 (with Carboplatin), “Antagonism”; in the assay with OE19 (with Cisplatin and Paclitaxel) it was “Mix”; with HFL1 (no agent ticked) it was “Additivity”; with HFL1 (with Cisplatin) it was “Additive”. Moreover, the “Synergy or Antagonism, No Radiation” value with HFL1 (with Cisplatin and 5-FU) is given as “Additivity”; in the assay on HFL1 (with Etoposide), “Synergy”; in the assay with HFL1 (with Paclitaxel), “Additivity”. Besides, the “Synergy or Antagonism, Plus Radiation (2 Gy)” value (“Synergy or Antagonism … (2 Gy)” below) with A549 (no agent ticked) is “Plus”; in the assay on A549 (with Cetuximab), “Additivity, Plus”; in the assay on A549 (with Cisplatin and Etoposide), “Strong Synergy, Plus”; with A549 (with Cisplatin and Paclitaxel) it was “Synergy, Plus”; in the assay on FaDu (no agent ticked) it was “Plus”; in the assay on FaDu (with Cetuximab), “Additivity, Plus”. Besides, the “Synergy or Antagonism … (2 Gy)” value in the assay with H2009 is recorded as “Plus”; with H460, “Plus”; with Colo205, “Synergy, Plus”; in the assay with OE19 (with 5-FU) it was “Synergy*, Plus”; in the assay with OE19 (with Carboplatin) it was “Synergy*, Plus”; in the assay with OE19 (with Cisplatin and Paclitaxel) it was “Synergy, Plus”. For the same compound, the “Synergy or Antagonism … (2 Gy)” value is on record as “No effect” in the assay on HFL1 (no agent ticked); “Additivity, Plus” in the assay on HFL1 (with Cisplatin and 5-FU). The colony formation entry in the assay on FaDu cells (Compound (1) and radiation, as little as 0.5 Gy) is “completely eliminated colony formation”. The “dose enhancement factor (DEF)” value is over 8 in the assay with FaDu cells (with radiation, surviving fraction 0.1) and 2.5 in the assay on Miapaca2 cells.

Take `[2H]c1nc(C)nc([2H])c1-c1cc(NC[C@@H](C)c2cccc3c(C(=O)NC)ccnc23)ncn1` [Compound (2), (S)-N-methyl-8-(1-((2′-methyl-4′,6′-dideutero-[4,5′-bipyrimidin]-6-yl)amino)propan-2-yl)quinoline-4-carboxamide]: in assay [1], the “shift in IC50 of the combination compared to doxorubicin alone” value is on record as over 3 fold. Moreover, the “Bliss analysis, combination effect” value in assay [2] is given as “strong synergy (greater than 10 indicates strong synergy)”.
